# Data as given in BindingDB's records for doi:10.1016/S0960-894X(01)80278-X (n/a, 1994).
# Starred links: 1 amine or outer side, 2 acyl side, 3 side chain; linkers in the order of their positions; H or OH if unused. Non-standard residues stand in square brackets, D forms with d. Residues, ends and D or L forms follow the SMILES beside them. *: point of attachment. X2 = C=CCN([C@@H](C)C(=O)[*:2])[*:1]; X1 = O=C(CN(CC(Br)CBr)[*:1])[*:2]; X3 = O=C(CN(CC(Cl)CCl)[*:1])[*:2]; NAllylGly = C=CCNCC(=O)O; Boc = CC(C)(C)OC(=O)*
# Assay: Antiviral activity against HIV-1 in CEM cells
row,SMILES,IC50 [µM]
1,C=CCN(CC(=O)N[C@H](C(=O)N[C@H](C(=O)OC)C(C)C)[C@@H](C)CC)C(=O)OC(C)(C)C,> 226
2,C=CCN(C(=O)[C@H](Cc1ccccc1)NC(=O)[C@H](C)NC(=O)OC(C)(C)C)[C@@H](C)C(=O)N[C@H](C(=O)N[C@H](C(=O)OC)C(C)C)[C@@H](C)CC (Boc-AF[X2]IV-OMe),> 296
3,C=CCN(CC(=O)N[C@H](C(=O)N[C@H](C(=O)OC)C(C)C)[C@@H](C)CC)C(=O)[C@@H](N)Cc1ccccc1 (H-F[NAllylGly]IV-OMe),> 204
4,C=CCN(C(=O)[C@H](Cc1ccccc1)NC(=O)OC(C)(C)C)[C@@H](C)C(=O)N[C@H](C(=O)N[C@H](C(=O)OC)C(C)C)[C@@H](C)CC,> 16.5
5,C=CCN(C(=O)[C@H](Cc1ccccc1)NC(=O)[C@H](C)NC(=O)[C@H](C)NC(=O)OC(C)(C)C)[C@@H](C)C(=O)N[C@H](C(=O)N[C@H](C(=O)OC)C(C)C)[C@@H](C)CC (Boc-AAF[X2]IV-OMe),3.89
6,CC[C@H](C)[C@H](NC(=O)CN(CC(Br)CBr)C(=O)[C@H](Cc1ccccc1)NC(=O)[C@H](C)NC(=O)OC(C)(C)C)C(=O)N[C@H](C(=O)OC)C(C)C (stereo not given in full) (Boc-AF[X1]IV-OMe),> 610
7,CC[C@H](C)[C@H](NC(=O)CN(CC(Cl)CCl)C(=O)[C@H](Cc1ccccc1)NC(=O)OC(C)(C)C)C(=O)N[C@H](C(=O)OC)C(C)C (stereo not given in full),> 50.4
8,C=CCNCC(=O)N[C@H](C(=O)N[C@H](C(=O)OC)C(C)C)[C@@H](C)CC,> 195
9,C=CCN(CC(=O)N[C@H](C(=O)N[C@H](C(=O)OC)C(C)C)[C@@H](C)CC)C(=O)[C@H](Cc1ccccc1)NC(=O)[C@H](C)N (H-AF[NAllylGly]IV-OMe),> 178
10,C=CCN(CC(=O)N[C@H](C(=O)N[C@H](C(=O)OC)C(C)C)[C@@H](C)CC)C(=O)[C@H](Cc1ccccc1)NC(=O)OC(C)(C)C (Boc-F[NAllylGly]IV-OMe),> 169
11,C=CCN(CC(=O)N[C@H](C(=O)N[C@H](C(=O)OC)C(C)C)[C@@H](C)CC)C(=O)[C@H](Cc1ccccc1)NC(=O)[C@H](C)NC(=O)[C@H](C)NC(=O)[C@H](CO)NC(=O)OC(C)(C)C (Boc-SAAF[NAllylGly]IV-OMe),> 24.4
12,CC[C@H](C)[C@H](NC(=O)CN(CC(Cl)CCl)C(=O)[C@H](Cc1ccccc1)NC(=O)[C@H](C)NC(=O)OC(C)(C)C)C(=O)N[C@H](C(=O)OC)C(C)C (stereo not given in full) (Boc-AF[X3]IV-OMe),> 136
13,C=CCN(C(=O)[C@H](Cc1ccccc1)NC(=O)[C@H](C)NC(=O)[C@H](C)NC(=O)[C@H](CO)NC(=O)OC(C)(C)C)[C@@H](C)C(=O)N[C@H](C(=O)N[C@H](C(=O)OC)C(C)C)[C@@H](C)CC (Boc-SAAF[X2]IV-OMe),> 120
14,C=CCN(CC(=O)N[C@H](C(=O)N[C@H](C(=O)OC)C(C)C)[C@@H](C)CC)C(=O)[C@H](Cc1ccccc1)NC(=O)[C@H](C)NC(=O)OC(C)(C)C (Boc-AF[NAllylGly]IV-OMe),54.1
15,CC[C@H](C)[C@H](NC(=O)CN(CC(Br)CBr)C(=O)[C@H](Cc1ccccc1)NC(=O)OC(C)(C)C)C(=O)N[C@H](C(=O)OC)C(C)C (stereo not given in full),56.7
